Patent US8796292B2, “Selective antibacterials for clostridium difficile infections” (GLSynthesis Inc., priority 2009, dated 2014)
Values after ≈ are worked out from the molar mass of the structure shown. Structures can show the parent of a compound that is named as a salt. Where two headings read alike, the source gives them in different places.

Legend:
C. diff. (ATCC43255) = assay: clindamycin-induced C. diff. infection model in Syrian golden hamsters; format: in vivo; conditions: 50 mg/kg PO bid for 3 days, n = 6 hamsters
Text: Compound 359E was given orally as a suspension in 1% carboxymethylcellulose to Syrian Golden hamsters, pretreated subcutaneously with clindamycin and infected orally with C. diff. (ATCC43255) as described in Table 5.

C. difficile = assay: agar dilution MIC assay of anaerobic bacteria; format: cell-based, Clostridium difficile
Experimental: (§1) Each compound was assayed against a panel of anaerobic bacteria in culture, consisting of Gram-positive organisms, such as Lactobacilli, Bifidobacteria, Clostridium spp., and Gram-negative bacteria, such as […] fragilis spp., according to guidelines of the Clinical and Laboratory Standards Institute (CLSI document M11-A7, CLSI, Wayne, Pa., 2007). […] One tenth mL of diluted bacteria containing 500-1000 colony-forming units (CFU) was plated and spread, and the plates incubated at 37° C. for 24-48 hours. MIC (minimum inhibitory concentration) is equivalent to the lowest concentration in μg/ml at which growth, i.e., colony formation, is not observed. […] Bacteria were assayed using a reference agar dilution method. Drug dilutions and drug-supplemented agar plates were prepared manually. The test organisms were maintained frozen at −80° C. The isolates were sub-cultured on Supplemented Brucella Agar (SBA) plates in a Bactron II anaerobic chamber and incubated for 48 hours at 35-36° C. in the Bactron II anaerobe chamber. Following inoculation, the drug-supplemented plates were incubated at 35° C. for 48 hours in the anaerobic environment (5% hydrogen, 5% carbon dioxide, 90% nitrogen) of the Bactron II. The MIC in μg/ml was read per Clinical and Laboratory Standards Institute guidelines.

Ba. fragilis = assay: agar dilution MIC assay of anaerobic bacteria; format: cell-based; conditions: Bacteroides fragilis, B. fragilis, Micromyx Number 0123 (ATCC strain), Table 2
Experimental: as §1

Structure (SMILES): CN[C@H](CC(C)C)C(=O)N[C@H]1C(=O)N[C@@H](CC(N)=O)C(=O)N[C@H]2C(=O)N[C@H]3C(=O)N[C@H](C(=O)N[C@H](C(=O)O)c4cc(O)cc(O)c4-c4cc3ccc4O)[C@H](O)c3ccc(c(Cl)c3)Oc3cc2cc(c3O[C@@H]2O[C@H](CO)[C@@H](O)[C@H](O)[C@H]2O[C@H]2C[C@](C)(N)[C@H](O)[C@H](C)O2)Oc2ccc(cc2Cl)[C@H]1O [vancomycin HCl, reference compound]
- % Survivors at 120 hr (C. diff. (ATCC43255)): 100%
- Survivors at 24 hr (C. diff. (ATCC43255)): 6
- Survivors at 48 hr (C. diff. (ATCC43255)): 6
- Survivors at 66 hr (C. diff. (ATCC43255)): 6
- Survivors at 72 hr (C. diff. (ATCC43255)): 6
- Survivors at 96 hr (C. diff. (ATCC43255)): 6

Structure (SMILES): O=c1[nH]c(NCc2ccc(Cl)c(Cl)c2)nc2ncn(CCCCN3CCOCC3)c12 [Compound 258D, 7-[4-(N-morpholinyl)butyl]-2-(3,4-dichlorobenzylamino)-6-oxopurine]
- MIC (C. difficile; Clostridioides difficile, C. diff. Strain no. 18285, Table 4, read-out: MIC): 8 µg/mL (≈ 17.7 µM)
- MIC (C. difficile; Clostridioides difficile, C. diff. Strain no. 19265, Table 4, read-out: MIC): 4 µg/mL (≈ 8.86 µM)
- MIC (C. difficile; Clostridioides difficile, C. diff. Strain no. 19273, Table 4, read-out: MIC): 8 µg/mL (≈ 17.7 µM)
- MIC (C. difficile; Clostridioides difficile, C. diff. Strain no. 19281, Table 4, read-out: MIC): 4 µg/mL (≈ 8.86 µM)
- MIC (C. difficile; Clostridioides difficile, C. diff. Strain no. 19291, Table 4, read-out: MIC): 4 µg/mL (≈ 8.86 µM)
- MIC (C. difficile; Clostridioides difficile, C. diff. Strain no. 19369, Table 4, read-out: MIC): 16 µg/mL (≈ 35.4 µM)
- MIC (C. difficile; Clostridioides difficile, C. diff. Strain no. 19382, Table 4, read-out: MIC): 4 µg/mL (≈ 8.86 µM)
- MIC (C. difficile; Clostridioides difficile, C. diff. Strain no. 19540, Table 4, read-out: MIC): 4 µg/mL (≈ 8.86 µM)
- MIC (C. difficile; Clostridioides difficile, C. diff. Strain no. 19580, Table 4, read-out: MIC): 2 µg/mL (≈ 4.43 µM)
- MIC (C. difficile; Clostridioides difficile, C. diff. Strain no. 19680, Table 4, read-out: MIC): 4 µg/mL (≈ 8.86 µM)
- MIC (C. difficile; Clostridioides difficile, C. diff. Strain no. 19681, Table 4, read-out: MIC): 4 µg/mL (≈ 8.86 µM)
- MIC (C. difficile; Clostridioides difficile, C. diff. Strain no. 19683, Table 4, read-out: MIC): 8 µg/mL (≈ 17.7 µM)
- MIC (C. difficile; Clostridioides difficile, C. diff. Strain no. 19687, Table 4, read-out: MIC): 8 µg/mL (≈ 17.7 µM)
- MIC (C. difficile; Clostridioides difficile, C. diff. Strain no. 20066, Table 4, read-out: MIC): 8 µg/mL (≈ 17.7 µM)
- MIC (C. difficile; Clostridioides difficile, C. diff. Strain no. 20152, Table 4, read-out: MIC): 16 µg/mL (≈ 35.4 µM)
- MIC (C. difficile; Clostridioides difficile, C. diff. Strain no. 20307, Table 4, read-out: MIC): 4 µg/mL (≈ 8.86 µM)
- MIC (C. difficile; Clostridioides difficile, C. diff. Strain no. 20494, Table 4, read-out: MIC): 4 µg/mL (≈ 8.86 µM)
- MIC (C. difficile; Clostridioides difficile, C. diff. Strain no. 20680, Table 4, read-out: MIC): 4 µg/mL (≈ 8.86 µM)
- MIC (C. difficile; Clostridioides difficile, C. diff. Strain no. 20934, Table 4, read-out: MIC): 4 µg/mL (≈ 8.86 µM)
- MIC (C. difficile; Clostridioides difficile, C. diff. Strain no. 21099, Table 4, read-out: MIC): 2 µg/mL (≈ 4.43 µM)

Structure (SMILES): CCOCCn1cnc2nc(NCc3ccc(Cl)c(Cl)c3)[nH]c(=O)c21 [Compound 325E]
- MIC (C. difficile; Clostridioides difficile, C. diff., Micromyx Number 3579, Table 2, read-out: MIC): 2 µg/mL (≈ 5.23 µM)
- MIC (C. difficile; Clostridioides difficile, C. diff., Micromyx Number 3580, Table 2, read-out: MIC): 2 µg/mL (≈ 5.23 µM)
- MIC (C. difficile; Clostridioides difficile, C. diff., Micromyx Number 3581, Table 2, read-out: MIC): 1 µg/mL (≈ 2.62 µM)
- MIC (C. difficile; Clostridioides difficile, C. diff., Micromyx Number 3582 (ATCC strain), Table 2, read-out: MIC): 2 µg/mL (≈ 5.23 µM)
- MIC (Ba. fragilis): > 32 µg/mL

Structure (SMILES): O=c1[nH]c(NCc2ccc(Cl)c(Cl)c2)nc2ncn(CCCN3CCOCC3)c12 [Compound 363A]
- MIC (C. difficile; C. diff. Strain no. 18285, Table 4): 8 µg/mL (≈ 18.3 µM)
- MIC (C. difficile; C. diff. Strain no. 19265, Table 4): 8 µg/mL (≈ 18.3 µM)
- MIC (C. difficile; C. diff. Strain no. 19273, Table 4): 4 µg/mL (≈ 9.15 µM)
- MIC (C. difficile; C. diff. Strain no. 19281, Table 4): 8 µg/mL (≈ 18.3 µM)
- MIC (C. difficile; C. diff. Strain no. 19291, Table 4): 4 µg/mL (≈ 9.15 µM)
- MIC (C. difficile; C. diff. Strain no. 19369, Table 4): 8 µg/mL (≈ 18.3 µM)
- MIC (C. difficile; C. diff. Strain no. 19382, Table 4): 2 µg/mL (≈ 4.57 µM)
- MIC (C. difficile; C. diff. Strain no. 19540, Table 4): 4 µg/mL (≈ 9.15 µM)
- MIC (C. difficile; C. diff. Strain no. 19580, Table 4): 2 µg/mL (≈ 4.57 µM)
- MIC (C. difficile; C. diff. Strain no. 19680, Table 4): 8 µg/mL (≈ 18.3 µM)
- MIC (C. difficile; C. diff. Strain no. 19681, Table 4): 4 µg/mL (≈ 9.15 µM)
- MIC (C. difficile; C. diff. Strain no. 19683, Table 4): 8 µg/mL (≈ 18.3 µM)
- MIC (C. difficile; C. diff. Strain no. 19687, Table 4): 8 µg/mL (≈ 18.3 µM)
- MIC (C. difficile; C. diff. Strain no. 20066, Table 4): 8 µg/mL (≈ 18.3 µM)
- MIC (C. difficile; C. diff. Strain no. 20152, Table 4): 8 µg/mL (≈ 18.3 µM)
- MIC (C. difficile; C. diff. Strain no. 20307, Table 4): 2 µg/mL (≈ 4.57 µM)
- MIC (C. difficile; C. diff. Strain no. 20494, Table 4): 8 µg/mL (≈ 18.3 µM)
- MIC (C. difficile; C. diff. Strain no. 20680, Table 4): 8 µg/mL (≈ 18.3 µM)
- MIC (C. difficile; C. diff. Strain no. 20934, Table 4): 2 µg/mL (≈ 4.57 µM)
- MIC (C. difficile; C. diff. Strain no. 21099, Table 4): 8 µg/mL (≈ 18.3 µM)
